In patent publication US9718802B2, “Crystal form of dabigatran etexilate mesylate and preparation method and use thereof” (Zhejiang Hisun Pharmaceutical Co., Ltd., priority 2014, dated 2017):
“Also recorded” adds a separate entry of the source.

Key:
Assay type in all cases: physicochemical
[1] = Test 1 stability data under 25° C. for 6 months (liquid chromatography); conditions: for Major peak: 25° C., in % (unit assumed); for chemical stability compared with crystal form I, crystal form II and the semihydrate crystal form: normal temperature and cold storage conditions
Method: (§1) Liquid chromatography test conditions are: chromatographic column is Merck Purospher®STAR RP-18 endcapped 250×4.6 mm, 5 μm; mobile phase A: acetonitrile, mobile phase B: 4 ml phosphoric acid added in 1 L water, the pH is adjusted to 3.5 by triethylamine; detecting wavelength: 310 nm; flow rate: 1 ml/min; sample load: 10 μl; column temperature: 30° C., liquid chromatography conditions are shown in table 4:
(§2) The inventor has tested the chemical stability of the crystal form M and crystal form N under normal temperature, cold storage and freezing conditions and compared the chemical stability with crystal form I, crystal form II and semihydrate crystal form, see tests 1-3. In the tests, crystal form I, crystal form II and semihydrate crystal form are all prepared according to the method disclosed in patent document U.S. Pat. No. 7,932,273B2.

[2] = Test 2 stability data under 5° C. for 6 months (liquid chromatography); conditions: for Major peak: 5° C., in % (unit assumed); for storage stability: cold storage and freezing conditions
Method: as §1, §2
Test 2 stability data under 5° C. for 6 months (see table 6)

[3] = Test 3 stability data under −20° C. for 6 months (liquid chromatography); conditions: in % (unit assumed)
Method: as §1, §2
Test 3 stability data under −20° C. for 6 months (see table 7)

[4] = Crystal form of samples after 6 months stability tests under different temperature; conditions: 6 months under different temperature
[5] = Test 4 stability of crystal form N in 95% ethanol solution (XRD); conditions: stirred for 3, 4 and 5 hours
Method: In the following examples and tests, the powder X-ray diffractometer and the test conditions are: X-ray diffractomer model Rigaku D/max-2200 Cu target; operation method: scan rate 4°/min, scan width 0.01°.
Test 4 the stability in formulation of crystal form N
This indicate that the crystal form N is stable in the 95% ethanol solution, therefore, it has great stability in the related formulation processes.

Row | SMILES | Major peak ([1]; 0 month) | Major peak ([1]; 1 month) | Major peak ([1]; 2 months) | Major peak ([1]; 3 months) | Major peak ([1]; 4 months) | Major peak ([1]; 5 months) | Major peak ([1]; 6 months) | Major peak ([2]; 0 month) | Major peak ([2]; 1 month) | Major peak ([2]; 2 months) | Major peak ([2]; 3 months) | Major peak ([2]; 4 months) | Major peak ([2]; 5 months) | Major peak ([2]; 6 months) | Major peak ([3]; 1 month) | Major peak ([3]; 2 months) | Major peak ([3]; 3 months) | Major peak ([3]; 4 months) | Major peak ([3]; 5 months) | Major peak ([3]; 6 months) | further results
1 | CCCCCCOC(=O)/N=C(/N)c1ccc(NCc2nc3cc(C(=O)N(CCC(=O)OCC)c4ccccn4)ccc3n2C)cc1.CS(=O)(=O)O [Crystal form I, 3-[(2-{[4-(hexaoxycarbonylamino-imino-methyl)-phenylamino]-methyl}-1-methyl-1H-benzimidazole-5-carbonyl)-pyridine-2-yl-amino-]-ethyl propionate-mesylate] | 99.690 | 99.604 | 99.574 | 99.468 | 99.308 | 99.309 | 99.220 | 99.676 | 99.655 | 99.651 | 99.652 | 99.651 | 99.649 | 99.643 | 99.693 | 99.694 | 99.690 | 99.692 | 99.691 | 99.692 | 
2 | CCCCCCOC(=O)/N=C(/N)c1ccc(NCc2nc3cc(C(=O)N(CCC(=O)OCC)c4ccccn4)ccc3n2C)cc1.CS(=O)(=O)O [Crystal form II, 3-[(2-{[4-(hexaoxycarbonylamino-imino-methyl)-phenylamino]-methyl}-1-methyl-1H-benzimidazole-5-carbonyl)-pyridine-2-yl-amino-]-ethyl propionate-mesylate] | 99.646 | 99.493 | 99.408 | 99.290 | 99.069 | 99.029 | 98.911 | 99.631 | 99.630 | 99.643 | 99.640 | 99.641 | 99.598 | 99.592 | 99.630 | 99.633 | 99.634 | 99.630 | 99.632 | 99.632 | 

Further lines, with some results ahead:

Row | Major peak ([1]; 0 month) | Major peak ([1]; 1 month) | Major peak ([1]; 2 months) | Major peak ([1]; 3 months) | Major peak ([1]; 4 months) | Major peak ([1]; 5 months) | Major peak ([1]; 6 months) | Major peak ([2]; 0 month) | Major peak ([2]; 1 month) | Major peak ([2]; 2 months) | Major peak ([2]; 3 months) | Major peak ([2]; 4 months) | Major peak ([2]; 5 months) | Major peak ([2]; 6 months) | Major peak ([3]; 1 month) | Major peak ([3]; 2 months) | Major peak ([3]; 3 months) | Major peak ([3]; 4 months) | Major peak ([3]; 5 months) | Major peak ([3]; 6 months) | SMILES | further results
3 | 99.711 | 99.632 | 99.614 | 99.595 | 99.582 | 99.574 | 99.541 | 99.654 | 99.650 | 99.648 | 99.651 | 99.649 | 99.649 | 99.648 | 99.722 | 99.728 | 99.737 | 99.737 | 99.739 | 99.737 | CCCCCCOC(=O)/N=C(/N)c1ccc(NCc2nc3cc(C(=O)N(CCC(=O)OCC)c4ccccn4)ccc3n2C)cc1.CS(=O)(=O)O [Crystal form M, 3-[(2-{[4-(hexaoxycarbonylamino-imino-methyl)-phenylamino]-methyl}-1-methyl-1H-benzimidazole-5-carbonyl)-pyridine-2-yl-amino-]-ethyl propionate-mesylate] | chemical stability compared with crystal form I, crystal form II and the semihydrate crystal form [1]: better chemical stability; storage stability [2]: can be stored stable for a long time; crystal form of samples after stability tests [4]: not changed
4 | 99.701 | 99.631 | 99.618 | 99.601 | 99.580 | 99.572 | 99.536 | 99.660 | 99.659 | 99.655 | 99.652 | 99.650 | 99.650 | 99.649 | 99.723 | 99.726 | 99.734 | 99.733 | 99.734 | 99.733 | CCCCCCOC(=O)/N=C(/N)c1ccc(NCc2nc3cc(C(=O)N(CCC(=O)OCC)c4ccccn4)ccc3n2C)cc1.CS(=O)(=O)O [Crystal form N, 3-[(2-{[4-(hexaoxycarbonylamino-imino-methyl)-phenylamino]-methyl}-1-methyl-1H-benzimidazole-5-carbonyl)-pyridine-2-yl-amino-]-ethyl propionate-mesylate] | chemical stability compared with crystal form I, crystal form II and the semihydrate crystal form [1]: better chemical stability; storage stability [2]: can be stored stable for a long time; stability in 95% ethanol solution (X-Ray powder diffractograms) [5]: not changed within 5 hours; also recorded: very good stability; crystal form of samples after stability tests [4]: not changed
5 | 99.847 | 99.707 | 99.631 | 99.587 | 99.447 | 99.334 | 99.254 | 99.828 | 99.827 | 99.830 | 99.826 | 99.831 | 99.827 | 99.832 | 99.834 | 99.833 | 99.836 | 99.839 | 99.840 | 99.836 | CCCCCCOC(=O)/N=C(/N)c1ccc(NCc2nc3cc(C(=O)N(CCC(=O)OCC)c4ccccn4)ccc3n2C)cc1.CS(=O)(=O)O [Semihydrate crystal form, 3-[(2-{[4-(hexaoxycarbonylamino-imino-methyl)-phenylamino]-methyl}-1-methyl-1H-benzimidazole-5-carbonyl)-pyridine-2-yl-amino-]-ethyl propionate-mesylate] | 
